ChEMBL document CHEMBL5442219

Experiments:
Conditions in all cases: Compound concentration 10 µM
[1] = molecular target: T1, Alpha-1A adrenergic receptor (Homo sapiens) (UniProt P35348)
T1 sequence (whole entry): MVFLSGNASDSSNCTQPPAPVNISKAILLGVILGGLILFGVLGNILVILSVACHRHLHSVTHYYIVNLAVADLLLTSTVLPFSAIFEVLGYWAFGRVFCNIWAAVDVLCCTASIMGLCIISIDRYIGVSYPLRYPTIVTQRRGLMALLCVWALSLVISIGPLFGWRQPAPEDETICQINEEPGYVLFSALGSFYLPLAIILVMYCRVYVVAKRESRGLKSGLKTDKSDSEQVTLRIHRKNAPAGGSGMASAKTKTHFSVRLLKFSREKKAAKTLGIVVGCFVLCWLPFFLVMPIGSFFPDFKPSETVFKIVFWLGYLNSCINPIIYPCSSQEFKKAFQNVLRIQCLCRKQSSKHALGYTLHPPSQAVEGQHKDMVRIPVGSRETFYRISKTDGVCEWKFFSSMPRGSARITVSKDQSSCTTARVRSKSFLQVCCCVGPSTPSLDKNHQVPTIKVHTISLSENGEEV

[2] = molecular target: Sigma intracellular receptor 2 (Homo sapiens) (UniProt Q5BJF2)
Sigma intracellular receptor 2 (Homo sapiens), sequence (Q5BJF2 whole entry): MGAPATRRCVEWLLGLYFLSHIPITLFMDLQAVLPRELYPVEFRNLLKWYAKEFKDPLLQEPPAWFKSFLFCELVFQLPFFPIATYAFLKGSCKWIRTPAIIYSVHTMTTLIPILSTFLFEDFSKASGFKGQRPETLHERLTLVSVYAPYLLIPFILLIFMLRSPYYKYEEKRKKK

[3] = molecular target: Histamine H3 receptor (Homo sapiens) (UniProt Q9Y5N1)
Histamine H3 receptor (Homo sapiens), sequence (Q9Y5N1 whole entry): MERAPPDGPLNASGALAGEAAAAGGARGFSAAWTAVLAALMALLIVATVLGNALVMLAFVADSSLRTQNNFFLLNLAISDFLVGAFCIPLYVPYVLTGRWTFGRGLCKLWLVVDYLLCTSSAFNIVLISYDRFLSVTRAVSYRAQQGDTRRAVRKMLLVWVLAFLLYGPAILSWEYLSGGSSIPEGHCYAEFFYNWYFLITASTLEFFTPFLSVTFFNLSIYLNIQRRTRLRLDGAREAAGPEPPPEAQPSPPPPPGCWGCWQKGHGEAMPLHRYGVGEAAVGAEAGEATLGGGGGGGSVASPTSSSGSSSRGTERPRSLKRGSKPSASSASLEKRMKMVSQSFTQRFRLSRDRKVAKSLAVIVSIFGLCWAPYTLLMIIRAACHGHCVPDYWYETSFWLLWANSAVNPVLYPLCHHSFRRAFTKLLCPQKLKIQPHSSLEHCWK

[4] = molecular target: Muscarinic acetylcholine receptor M3 (Homo sapiens) (UniProt P20309)
[5] = molecular target: 5-hydroxytryptamine receptor 7 (Homo sapiens) (UniProt P34969)
[6] = molecular target: D(1A) dopamine receptor (Homo sapiens) (UniProt P21728)
D(1A) dopamine receptor (Homo sapiens), sequence (P21728 whole entry): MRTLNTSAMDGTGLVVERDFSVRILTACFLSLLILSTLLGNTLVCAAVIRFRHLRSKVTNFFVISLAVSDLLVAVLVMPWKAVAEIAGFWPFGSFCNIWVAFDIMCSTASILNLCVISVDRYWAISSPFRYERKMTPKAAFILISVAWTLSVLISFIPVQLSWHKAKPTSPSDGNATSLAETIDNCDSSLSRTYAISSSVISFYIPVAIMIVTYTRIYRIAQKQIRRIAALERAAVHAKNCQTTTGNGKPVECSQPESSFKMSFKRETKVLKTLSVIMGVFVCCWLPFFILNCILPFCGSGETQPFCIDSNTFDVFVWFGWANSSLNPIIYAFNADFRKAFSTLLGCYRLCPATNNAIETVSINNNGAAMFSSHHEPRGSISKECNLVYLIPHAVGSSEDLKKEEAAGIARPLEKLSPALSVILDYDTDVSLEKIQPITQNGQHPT

[7] = molecular target: Beta-2 adrenergic receptor (Homo sapiens) (UniProt P07550)
Beta-2 adrenergic receptor (Homo sapiens), sequence (P07550 whole entry, looked up): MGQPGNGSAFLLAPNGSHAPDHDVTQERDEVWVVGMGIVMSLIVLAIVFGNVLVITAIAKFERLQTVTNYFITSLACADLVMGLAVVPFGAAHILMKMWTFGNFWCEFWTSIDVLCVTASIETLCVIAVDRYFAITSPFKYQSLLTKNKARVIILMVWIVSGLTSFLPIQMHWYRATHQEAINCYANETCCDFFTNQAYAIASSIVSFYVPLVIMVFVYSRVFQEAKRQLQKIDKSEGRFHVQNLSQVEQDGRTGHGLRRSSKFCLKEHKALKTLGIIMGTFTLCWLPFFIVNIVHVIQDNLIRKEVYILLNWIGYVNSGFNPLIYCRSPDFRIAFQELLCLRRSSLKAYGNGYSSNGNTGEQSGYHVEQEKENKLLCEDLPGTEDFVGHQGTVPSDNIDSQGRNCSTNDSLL

[8] = molecular target: Sigma non-opioid intracellular receptor 1 (Homo sapiens) (UniProt Q99720)
[9] = molecular target: 5-hydroxytryptamine receptor 1B (Homo sapiens) (UniProt P28222)
5-hydroxytryptamine receptor 1B (Homo sapiens), sequence (P28222 whole entry): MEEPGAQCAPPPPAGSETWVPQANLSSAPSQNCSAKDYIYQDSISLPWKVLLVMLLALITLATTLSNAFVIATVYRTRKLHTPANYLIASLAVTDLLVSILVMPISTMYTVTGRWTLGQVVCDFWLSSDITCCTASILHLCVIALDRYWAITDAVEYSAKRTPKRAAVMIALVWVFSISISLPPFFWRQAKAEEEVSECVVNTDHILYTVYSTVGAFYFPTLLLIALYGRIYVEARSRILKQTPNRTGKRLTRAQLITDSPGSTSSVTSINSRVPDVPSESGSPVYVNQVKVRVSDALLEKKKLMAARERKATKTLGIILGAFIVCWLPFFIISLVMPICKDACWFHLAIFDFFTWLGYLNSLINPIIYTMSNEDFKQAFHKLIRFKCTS

[10] = molecular target: 5-hydroxytryptamine receptor 1D (Homo sapiens) (UniProt P28221)
5-hydroxytryptamine receptor 1D (Homo sapiens), sequence (P28221 whole entry): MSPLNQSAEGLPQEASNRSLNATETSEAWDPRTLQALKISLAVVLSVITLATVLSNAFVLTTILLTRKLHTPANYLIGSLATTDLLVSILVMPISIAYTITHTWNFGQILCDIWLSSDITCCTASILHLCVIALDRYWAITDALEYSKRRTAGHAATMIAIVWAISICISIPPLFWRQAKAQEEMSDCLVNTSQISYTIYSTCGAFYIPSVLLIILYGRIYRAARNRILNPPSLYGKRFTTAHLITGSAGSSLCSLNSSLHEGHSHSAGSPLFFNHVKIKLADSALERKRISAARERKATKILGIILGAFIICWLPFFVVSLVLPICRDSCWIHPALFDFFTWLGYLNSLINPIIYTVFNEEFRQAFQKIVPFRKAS

[11] = molecular target: Histamine H1 receptor (Homo sapiens) (UniProt P35367)
[12] = molecular target: Histamine H4 receptor (Homo sapiens) (UniProt Q9H3N8)
Histamine H4 receptor (Homo sapiens), sequence (Q9H3N8 whole entry): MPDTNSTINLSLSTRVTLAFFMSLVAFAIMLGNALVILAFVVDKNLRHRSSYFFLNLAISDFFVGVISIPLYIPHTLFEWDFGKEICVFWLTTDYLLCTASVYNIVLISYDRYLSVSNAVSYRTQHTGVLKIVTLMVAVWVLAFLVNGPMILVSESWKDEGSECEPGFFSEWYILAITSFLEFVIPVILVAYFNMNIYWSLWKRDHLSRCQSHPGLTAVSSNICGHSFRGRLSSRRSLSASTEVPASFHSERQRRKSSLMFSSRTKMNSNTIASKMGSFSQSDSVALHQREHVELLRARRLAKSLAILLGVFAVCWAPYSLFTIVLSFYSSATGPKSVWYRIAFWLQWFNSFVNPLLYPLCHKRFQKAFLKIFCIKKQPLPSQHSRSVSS

[13] = molecular target: T2, Muscarinic acetylcholine receptor M1 (Homo sapiens) (UniProt P11229)
T2 sequence (whole entry): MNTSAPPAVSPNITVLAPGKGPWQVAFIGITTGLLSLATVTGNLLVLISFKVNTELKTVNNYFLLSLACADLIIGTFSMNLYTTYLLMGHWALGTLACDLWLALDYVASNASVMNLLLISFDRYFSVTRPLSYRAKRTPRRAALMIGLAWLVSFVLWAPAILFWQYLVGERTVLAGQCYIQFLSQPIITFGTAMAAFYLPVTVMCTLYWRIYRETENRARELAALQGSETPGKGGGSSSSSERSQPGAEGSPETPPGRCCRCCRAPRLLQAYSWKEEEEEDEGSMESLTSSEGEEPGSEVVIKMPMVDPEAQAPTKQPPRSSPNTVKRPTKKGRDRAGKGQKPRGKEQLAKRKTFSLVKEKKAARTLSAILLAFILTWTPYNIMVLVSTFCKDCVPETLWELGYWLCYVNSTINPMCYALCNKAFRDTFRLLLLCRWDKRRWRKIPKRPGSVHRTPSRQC

[14] = molecular target: 5-hydroxytryptamine receptor 5A (Homo sapiens) (UniProt P47898)
5-hydroxytryptamine receptor 5A (Homo sapiens), sequence (P47898 whole entry): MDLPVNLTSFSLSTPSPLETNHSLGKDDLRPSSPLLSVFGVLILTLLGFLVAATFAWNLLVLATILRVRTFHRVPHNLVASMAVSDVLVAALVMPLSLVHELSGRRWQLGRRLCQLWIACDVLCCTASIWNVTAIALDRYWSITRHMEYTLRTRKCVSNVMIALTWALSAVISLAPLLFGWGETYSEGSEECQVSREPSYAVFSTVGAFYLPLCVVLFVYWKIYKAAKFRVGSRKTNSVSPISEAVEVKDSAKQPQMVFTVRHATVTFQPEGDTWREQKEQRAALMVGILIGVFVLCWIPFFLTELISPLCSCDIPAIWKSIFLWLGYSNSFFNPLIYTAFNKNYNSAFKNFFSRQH

[15] = molecular target: 5-hydroxytryptamine receptor 1E (Homo sapiens) (UniProt P28566)
[16] = molecular target: Delta-type opioid receptor (Homo sapiens) (UniProt P41143)
Delta-type opioid receptor (Homo sapiens), sequence (P41143 whole entry): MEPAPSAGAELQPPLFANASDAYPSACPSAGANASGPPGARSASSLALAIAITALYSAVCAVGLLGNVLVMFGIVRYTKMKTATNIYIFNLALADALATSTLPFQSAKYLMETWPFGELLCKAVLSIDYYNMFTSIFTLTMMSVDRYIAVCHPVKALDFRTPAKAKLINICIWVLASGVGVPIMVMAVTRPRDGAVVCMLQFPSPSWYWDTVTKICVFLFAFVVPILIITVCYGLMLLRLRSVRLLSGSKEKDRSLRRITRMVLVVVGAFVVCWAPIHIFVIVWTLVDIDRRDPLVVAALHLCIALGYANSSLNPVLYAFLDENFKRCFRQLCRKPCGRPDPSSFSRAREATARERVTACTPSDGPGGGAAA

[17] = molecular target: D(2) dopamine receptor (Homo sapiens) (UniProt P14416)
[18] = molecular target: D(1B) dopamine receptor (Homo sapiens) (UniProt P21918)
D(1B) dopamine receptor (Homo sapiens), sequence (P21918 whole entry): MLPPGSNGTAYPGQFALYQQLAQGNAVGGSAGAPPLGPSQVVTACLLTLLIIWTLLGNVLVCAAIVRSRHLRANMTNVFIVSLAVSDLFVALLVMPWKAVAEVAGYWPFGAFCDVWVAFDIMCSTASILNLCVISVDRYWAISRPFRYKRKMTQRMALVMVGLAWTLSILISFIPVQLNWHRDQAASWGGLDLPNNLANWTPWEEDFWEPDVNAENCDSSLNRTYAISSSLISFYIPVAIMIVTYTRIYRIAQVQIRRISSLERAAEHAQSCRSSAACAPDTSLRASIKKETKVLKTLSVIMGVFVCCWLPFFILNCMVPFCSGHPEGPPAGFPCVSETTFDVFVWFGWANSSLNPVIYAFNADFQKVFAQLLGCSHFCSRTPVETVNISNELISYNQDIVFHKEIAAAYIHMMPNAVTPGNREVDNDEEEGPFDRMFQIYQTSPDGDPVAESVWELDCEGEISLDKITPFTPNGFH

[19] = molecular target: T3, Alpha-2A adrenergic receptor (Homo sapiens) (UniProt P08913)
T3 sequence (whole entry): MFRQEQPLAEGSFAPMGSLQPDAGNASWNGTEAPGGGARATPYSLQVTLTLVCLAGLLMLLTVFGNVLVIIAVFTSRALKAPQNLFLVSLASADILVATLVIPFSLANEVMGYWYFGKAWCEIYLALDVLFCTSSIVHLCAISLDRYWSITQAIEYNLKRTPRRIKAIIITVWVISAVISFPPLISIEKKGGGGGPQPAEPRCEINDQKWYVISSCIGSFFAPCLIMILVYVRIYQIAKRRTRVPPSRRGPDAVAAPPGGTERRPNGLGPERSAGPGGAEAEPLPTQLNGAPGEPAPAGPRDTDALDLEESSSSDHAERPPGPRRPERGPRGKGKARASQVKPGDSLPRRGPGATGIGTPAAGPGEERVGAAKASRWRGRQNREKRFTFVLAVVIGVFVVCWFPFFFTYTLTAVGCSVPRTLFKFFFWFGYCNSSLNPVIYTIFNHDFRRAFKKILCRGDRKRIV

[20] = molecular target: 5-hydroxytryptamine receptor 2A (Homo sapiens) (UniProt P28223)
5-hydroxytryptamine receptor 2A (Homo sapiens), sequence (P28223 whole entry): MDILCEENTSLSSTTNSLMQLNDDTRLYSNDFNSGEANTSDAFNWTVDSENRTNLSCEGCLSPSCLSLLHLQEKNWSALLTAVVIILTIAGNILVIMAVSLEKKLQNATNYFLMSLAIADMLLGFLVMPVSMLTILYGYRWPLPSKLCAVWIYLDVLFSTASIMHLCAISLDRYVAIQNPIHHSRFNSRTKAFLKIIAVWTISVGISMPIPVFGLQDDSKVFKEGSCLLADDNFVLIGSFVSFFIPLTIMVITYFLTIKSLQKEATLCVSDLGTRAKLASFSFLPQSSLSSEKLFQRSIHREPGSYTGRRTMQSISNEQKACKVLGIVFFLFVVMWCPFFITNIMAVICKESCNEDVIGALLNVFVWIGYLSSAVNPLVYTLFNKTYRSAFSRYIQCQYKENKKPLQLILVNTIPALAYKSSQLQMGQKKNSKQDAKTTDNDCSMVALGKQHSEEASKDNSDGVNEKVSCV

[21] = molecular target: 5-hydroxytryptamine receptor 6 (Homo sapiens) (UniProt P50406)
5-hydroxytryptamine receptor 6 (Homo sapiens), sequence (P50406 whole entry): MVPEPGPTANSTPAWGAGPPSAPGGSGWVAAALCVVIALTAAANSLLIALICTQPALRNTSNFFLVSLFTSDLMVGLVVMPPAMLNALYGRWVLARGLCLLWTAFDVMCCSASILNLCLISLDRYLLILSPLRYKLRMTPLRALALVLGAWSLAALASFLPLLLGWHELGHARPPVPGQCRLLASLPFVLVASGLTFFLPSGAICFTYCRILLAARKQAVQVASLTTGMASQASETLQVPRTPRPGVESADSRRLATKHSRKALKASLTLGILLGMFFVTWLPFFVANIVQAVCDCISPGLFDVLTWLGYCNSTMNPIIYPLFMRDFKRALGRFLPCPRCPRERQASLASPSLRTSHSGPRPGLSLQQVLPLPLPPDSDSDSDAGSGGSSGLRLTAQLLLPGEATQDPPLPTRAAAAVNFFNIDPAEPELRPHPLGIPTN

SMILES | inhibition [1] [%] | inhibition [2] [%] | inhibition [3] [%] | inhibition [4] [%] | inhibition [5] [%] | inhibition [6] [%] | inhibition [7] [%] | inhibition [8] [%] | inhibition [9] [%] | inhibition [10] [%] | inhibition [11] [%] | inhibition [12] [%] | inhibition [13] [%] | inhibition [14] [%] | inhibition [15] [%] | inhibition [16] [%] | inhibition [17] [%] | inhibition [18] [%] | inhibition [19] [%] | inhibition [20] [%] | also measured
COc1ccc(NC(=O)c2ccc(-c3ccc(-c4noc(C)n4)cc3C)cc2)cc1OCCN(C)C | 17.3 | 84.2 | 65.4 | 37.2 | 78.8 | 47.9 | 13.1 | 70 | 101 | 101 | 22.1 | 49 | 50.7 | 65.6 | 52.5 | 0.83 | 34.6 | 48.4 | 99.4 | 95.4 | 
CN1CCCC(n2nc(Cc3ccc(Cl)cc3)c3ccccc3c2=O)CC1 (stereo not drawn) | 87.7 | 97 | 28.5 | 57.3 | 80.4 | 57.1 | -8.69 | 91.9 | 66.5 | 57.9 |  | 1.53 | 82.9 | 80.8 | 57.6 | 24.1 | 79.1 | 24.1 | 62.3 | 96.7 | inhibition [21]: 74.7%
Cc1nn(C)c(C)c1-c1cccc2c1CC[C@H](N(C)C)C2 | 15.3 | 79.1 |  | 44.1 | 94.1 | 19.8 | 20.2 | 102 | 91.5 | 95.6 | 9.36 |  | 29.3 | 87.1 | 47.5 | -4.68 | 32.7 | 26 | 89.8 |  | inhibition [21]: -8.86%
OC[C@H]1O[C@@H](n2cnc3c(NC4CCCC4)ncnc32)[C@H](O)[C@@H]1O | -0.37 | 14.2 | 7.78 | -0.28 | 16.1 | -1.28 | -3.65 | 51.9 | 15.9 | 24.7 | 2.72 |  | 15.4 | -5.9 | -3.16 | -3.21 | 25 | 80.8 | -6.3 | -8.74 | 
Clc1ccc(CCCOCCCN2CCCCC2)cc1 | -2.04 | 98.7 | 79.8 | 44.5 | 63.3 | 12.1 | -7.56 | 99.5 | 12.1 | 16.4 | 68.7 | -7.57 | 24.5 | -0.39 | 17.3 | -1.15 | 6.98 |  | -7.75 | 28.5 | inhibition [21]: 39.1%
CCc1cc2c(cc1CC)CC(NC[C@H](O)c1ccc(O)c3[nH]c(=O)ccc13)C2 | 84.1 | 96.5 |  | 18.1 | -0.79 | 11.9 | 94.3 | -7.63 | 34.4 | 118 | 34.9 | 4.91 | -6.02 | 6.33 | -6.64 | 1.1 | -7.35 | 38.5 | 42.1 | 61.1 | 
CC1CCN(CC[C@H]2CCCN2S(=O)(=O)c2cccc(O)c2)CC1 |  | 98.2 | -4.13 | 0.09 | 85.8 | -5.94 | -9.8 | -8.64 | 78.2 | 88.7 | 44.4 | 10.6 | -8.14 | 91.7 | 7.28 | 7.91 | 33.5 | 85.1 | 65.6 | 28.8 | 
CC1(C)SSC(C)(C)[C@@H](NC(=O)[C@@H](N)Cc2ccc(O)cc2)C(=O)NCC(=O)N[C@@H](Cc2ccccc2)C(=O)N[C@H]1C(=O)O | -6.07 | 22.6 | -2.58 | -1.79 | -0.55 | 11.4 | -0.03 | 21.7 | 7.79 | 15.2 | 3.33 | -8.56 | -6.96 | -9.01 | 17.2 |  | 30.3 | 3.84 | 13.7 | 24.5 | 
OCc1cc(C(O)CNCCCCCCOCCCCc2ccccc2)ccc1O (stereo not drawn) | 77 | 102 | 23.3 | -8.98 | 97.4 | 6.76 |  |  | 51.1 | 76.6 | 27.7 | 6.15 | 19.1 | 9.07 | 17.4 | 5.6 | 10.9 | 19.6 | 58 | 78.2 | inhibition [21]: 18%
CS(=O)(=O)NC[C@H]1CC[C@H](Nc2nc3c(s2)CCSc2ccccc2-3)CC1 | -9.44 | 81.4 | -7.45 | -7.8 | 39.7 | 14.1 | 94.4 | 45.3 |  | 50.8 | 18.7 | -4.86 | -1.96 | 64.7 | 6.22 | 4.54 | 4.83 | -6.36 | 0.86 | 23.7 | inhibition [21]: 35%
